Measured values: patent US20180320217A1, “METHODS FOR SAMPLING AND MEASURING ORAL LAVAGE PROTEINS” (The Procter & Gamble Company, priority 2017, published 2018)
Values joined by “and” are separate entries in the source; they are usually repeats but may differ in a detail not shown here. Identical values can stand only once. “Also recorded” adds a separate entry of the source.

What was measured:
[1] = system: diaphorase; test: Effect of concentrations of tetrazolium salts on formation of formazan dyes (FIGS. 4A-4G); assay type: biochemical; conditions: 15 mM NADH+H, 20 μg diaphorase, pH 7.5; FIGS. 4A to 4G
Experimental: On the idea that higher concentrations of tetrazolium salts in the assay buffer would likely result in more formazan dyes in the reaction, various concentrations of tetrazolium salts were added to a reaction buffer and the formation of formazan dyes were measured at 0, 30 and 60 minutes. […] The reactions were performed at room temperature. Absorbance was taken at 0, 30 and 60 minutes.

[2] = system: Malate dehydrogenase and diaphorase; test: Formation of formazan dyes: Malate dehydrogenase and diaphorase, absence of malate (TABLE 9); assay type: biochemical, pig heart
[3] = system: diaphorase; test: Formation of formazan dyes: only diaphorase and malate (TABLE 14); assay type: biochemical, Clostridium kluyveri; conditions: mean of three experiments
[4] = molecular target: T1, Malate dehydrogenase (Sus scrofa, UniProt P00346); test: Formation of formazan dyes: Malate dehydrogenase, malate and 1-Methoxy PMS (TABLE 18); assay type: biochemical, pig heart; design: L-malate dehydrogenase (pig heart); purchased Sigma-Aldrich 10127248001 / 10127914001; conditions: monosodium salt
T1 sequence (P00346 25-338): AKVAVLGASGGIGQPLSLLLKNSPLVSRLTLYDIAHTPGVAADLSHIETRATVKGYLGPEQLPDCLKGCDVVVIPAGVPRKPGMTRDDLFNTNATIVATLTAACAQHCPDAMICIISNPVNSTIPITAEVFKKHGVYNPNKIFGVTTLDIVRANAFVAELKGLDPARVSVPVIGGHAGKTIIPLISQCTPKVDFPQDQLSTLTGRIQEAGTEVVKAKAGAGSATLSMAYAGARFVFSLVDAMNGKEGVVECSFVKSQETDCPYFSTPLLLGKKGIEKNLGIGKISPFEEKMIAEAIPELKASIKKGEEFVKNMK

[5] = Formation of formazan dyes: NADH and 1-methoxy PMS, absence of malate (TABLE 15); assay type: biochemical; conditions: monosodium salt
[6] = Formation of formazan dyes: control buffer, malate and 1-Methoxy PMS (TABLE 22); assay type: biochemical
[7] = system: oral lavage; test: Formation of formazan dyes: oral lavage and 1-Methoxy PMS, absence of malate (TABLE 19); assay type: biochemical, human; conditions: monosodium salt
[8] = system: Malate dehydrogenase and diaphorase; test: Formation of formazan dyes: Malate dehydrogenase, diaphorase and malate (TABLE 10); assay type: biochemical, pig heart
[9] = system: oral lavage; test: Formation of formazan dyes: oral lavage, malate and diaphorase (TABLE 12); assay type: biochemical, human; conditions: oral lavage, malate and diaphorase
[10] = Formation of formazan dyes: NADH, malate and 1-methoxy PMS (TABLE 16); assay type: biochemical; conditions: monosodium salt
[11] = system: diaphorase; test: Formation of formazan dyes: NADH and diaphorase, absence of malate (TABLE 7); assay type: biochemical, Clostridium kluyveri; conditions: NADH and diaphorase, absence of malate
[12] = system: diaphorase; test: Formation of formazan dyes: NADH, diaphorase and malate (TABLE 8); assay type: biochemical, Clostridium kluyveri
[13] = system: oral lavage; test: Formation of formazan dyes: oral lavage and diaphorase, not malate (TABLE 11); assay type: biochemical, human
[14] = molecular target: T1, Malate dehydrogenase; test: Formation of formazan dyes: Malate dehydrogenase and 1-Methoxy PMS, absence of malate (TABLE 17); assay type: biochemical, pig heart; design: L-malate dehydrogenase (pig heart); purchased Sigma-Aldrich 10127248001 / 10127914001
[15] = Formation of formazan dyes: control buffer and 1-Methoxy PMS, absence of malate (TABLE 21); assay type: biochemical; conditions: monosodium salt
[16] = system: diaphorase; test: Formation of formazan dyes: only diaphorase, not malate (TABLE 13); assay type: biochemical, Clostridium kluyveri; conditions: mean of three experiments
[17] = system: oral lavage; test: Formation of formazan dyes: oral lavage, malate and 1-Methoxy PMS (TABLE 20); assay type: biochemical, human; conditions: monosodium salt

COc1cc([N+](=O)[O-])ccc1-[n+]1nc(-c2ccccc2S(=O)(=O)O)nn1-c1ccc([N+](=O)[O-])cc1 [EZMTT]
concentration of tetrazolium salt at which absorbance reached peaks [1]: 2 mM

O=[N+]([O-])c1ccc(-[n+]2nc(-c3ccc(S(=O)(=O)[O-])cc3S(=O)(=O)[O-])nn2-c2ccc(I)cc2)cc1.[Na+] [WST-1, 2-(4-Iodophenyl)-3-(4-nitrophenyl)-5-(2,4-disulfophenyl)-2H-tetrazolium, monosodium salt]
Formation of formazan dyes, absorbance, Means 0 h ([2]; Malate dehydrogenase and diaphorase, absence of malate, 0 h): 0.76
Formation of formazan dyes, absorbance, Means 1 h ([2]; Malate dehydrogenase and diaphorase, absence of malate, 1 h): 1.13
Formation of formazan dyes, absorbance, Means 2 h ([2]; Malate dehydrogenase and diaphorase, absence of malate, 2 h): 1.28
Formation of formazan dyes, absorbance, Means 3 h ([2]; Malate dehydrogenase and diaphorase, absence of malate, 3 h): 1.38
Formation of formazan dyes, absorbance, Means 4 h ([2]; Malate dehydrogenase and diaphorase, absence of malate, 4 h): 1.47
Formation of formazan dyes, absorbance, Means 6 h ([2]; Malate dehydrogenase and diaphorase, absence of malate, 6 h): 1.60
Formation of formazan dyes, absorbance, Means 8 h ([2]; Malate dehydrogenase and diaphorase, absence of malate, 8 h): 1.71
Formation of formazan dyes, absorbance, Means 10 h ([2]; Malate dehydrogenase and diaphorase, absence of malate, 10 h): 1.78
Formation of formazan dyes, absorbance, Means 12 h ([2]; Malate dehydrogenase and diaphorase, absence of malate, 12 h): 1.75
reduction of tetrazolium dye in the absence of substrate malate ([2]; malate dehydrogenase and diaphorase (TABLE 9)): partially reduced
Absorbance, formation of formazan dyes (Means) ([3]; 0 h): 0.20
Absorbance, formation of formazan dyes (Means) ([3]; 1 h): 0.22
Absorbance, formation of formazan dyes (Means) ([3]; 2 h): 0.23
Absorbance, formation of formazan dyes (Means) ([3]; 3 h): 0.24
Absorbance, formation of formazan dyes (Means) ([3]; 4 h): 0.24
Absorbance, formation of formazan dyes (Means) ([3]; 6 h): 0.25
Absorbance, formation of formazan dyes (Means) ([3]; 8 h): 0.26
Absorbance, formation of formazan dyes (Means) ([3]; 10 h): 0.27
Absorbance, formation of formazan dyes (Means) ([3]; 12 h): 0.27
Absorbance, formation of formazan dyes (Means) [4]: 0.51 and 0.64 and 0.72 and 0.79
Absorbance, formation of formazan dyes (Means) [5]: 2.52 and 2.71 and 2.59 and 2.80
Means absorbance 0 h [6]: 0.31
Means absorbance 1 h [6]: 0.31
Means absorbance 2 h [6]: 0.32
Means absorbance 3 h [6]: 0.32
Absorbance, formation of formazan dyes (Means) [7]: 1.19 and 1.52 and 1.61 and 1.76
Formation of formazan dyes, absorbance, Means 0 h ([8]; Malate dehydrogenase, diaphorase and malate, 0 h): 0.84
Formation of formazan dyes, absorbance, Means 1 h ([8]; Malate dehydrogenase, diaphorase and malate, 1 h): 1.15
Formation of formazan dyes, absorbance, Means 2 h ([8]; Malate dehydrogenase, diaphorase and malate, 2 h): 1.31
Formation of formazan dyes, absorbance, Means 3 h ([8]; Malate dehydrogenase, diaphorase and malate, 3 h): 1.44
Formation of formazan dyes, absorbance, Means 4 h ([8]; Malate dehydrogenase, diaphorase and malate, 4 h): 1.53
Formation of formazan dyes, absorbance, Means 6 h ([8]; Malate dehydrogenase, diaphorase and malate, 6 h): 1.69
Formation of formazan dyes, absorbance, Means 8 h ([8]; Malate dehydrogenase, diaphorase and malate, 8 h): 1.81
Formation of formazan dyes, absorbance, Means 10 h ([8]; Malate dehydrogenase, diaphorase and malate, 10 h): 1.90
Formation of formazan dyes, absorbance, Means 12 h ([8]; Malate dehydrogenase, diaphorase and malate, 12 h): 1.96
conversion to reduced formazan dyes ([8]; malate dehydrogenase, diaphorase and malate (TABLE 10), monosodium salt): converted to reduced formazan dyes in a time-dependent fashion; also recorded: able to catalyze the reduction
Formation of formazan dyes, absorbance, Means 0 h ([9]; 0 h): 0.88
Formation of formazan dyes, absorbance, Means 1 h ([9]; 1 h): 1.19
Formation of formazan dyes, absorbance, Means 2 h ([9]; 2 h): 1.19
Formation of formazan dyes, absorbance, Means 3 h ([9]; 3 h): 1.23
Formation of formazan dyes, absorbance, Means 4 h ([9]; 4 h): 1.39
Formation of formazan dyes, absorbance, Means 6 h ([9]; 6 h): 1.31
Formation of formazan dyes, absorbance, Means 8 h ([9]; 8 h): 1.52
Formation of formazan dyes, absorbance, Means 10 h ([9]; 10 h): 1.61
Formation of formazan dyes, absorbance, Means 12 h ([9]; 12 h): 1.75
Absorbance, formation of formazan dyes (Means) [10]: 1.83 and 1.81 and 1.79
Formation of formazan dyes, absorbance, Means 0 h ([11]; 0 h): 3.54
Formation of formazan dyes, absorbance, Means 1 h ([11]; 1 h): 3.60
Formation of formazan dyes, absorbance, Means 2 h ([11]; 2 h): 3.59
Formation of formazan dyes, absorbance, Means 3 h ([11]; 3 h): 3.60
Formation of formazan dyes, absorbance, Means 4 h ([11]; 4 h): 3.59
Formation of formazan dyes, absorbance, Means 6 h ([11]; 6 h): 3.59
Formation of formazan dyes, absorbance, Means 8 h ([11]; 8 h): 3.55
Formation of formazan dyes, absorbance, Means 10 h ([11]; 10 h): 3.52
Formation of formazan dyes, absorbance, Means 12 h ([11]; 12 h): 3.45
Formation of formazan dyes, absorbance, Means 0 h ([12]; NADH, diaphorase and malate, 0 h): 2.63
Formation of formazan dyes, absorbance, Means 1 h ([12]; NADH, diaphorase and malate, 1 h): 2.60
Formation of formazan dyes, absorbance, Means 2 h ([12]; NADH, diaphorase and malate, 2 h): 2.59
Formation of formazan dyes, absorbance, Means 3 h ([12]; NADH, diaphorase and malate, 3 h): 2.57
Formation of formazan dyes, absorbance, Means 4 h ([12]; NADH, diaphorase and malate, 4 h): 2.55
Formation of formazan dyes, absorbance, Means 6 h ([12]; NADH, diaphorase and malate, 6 h): 2.52
Formation of formazan dyes, absorbance, Means 8 h ([12]; NADH, diaphorase and malate, 8 h): 2.48
Formation of formazan dyes, absorbance, Means 10 h ([12]; NADH, diaphorase and malate, 10 h): 2.44
Formation of formazan dyes, absorbance, Means 12 h ([12]; NADH, diaphorase and malate, 12 h): 2.38
level reduced to formazan dyes in the presence of malate ([12]; TABLE 8 compared with TABLE 7): lower level
Formation of formazan dyes, absorbance, Means 0 h ([13]; oral lavage and diaphorase, not malate, 0 h): 1.01
Formation of formazan dyes, absorbance, Means 1 h ([13]; oral lavage and diaphorase, not malate, 1 h): 1.24
Formation of formazan dyes, absorbance, Means 2 h ([13]; oral lavage and diaphorase, not malate, 2 h): 1.28
Formation of formazan dyes, absorbance, Means 3 h ([13]; oral lavage and diaphorase, not malate, 3 h): 1.30
Formation of formazan dyes, absorbance, Means 4 h ([13]; oral lavage and diaphorase, not malate, 4 h): 1.29
Formation of formazan dyes, absorbance, Means 6 h ([13]; oral lavage and diaphorase, not malate, 6 h): 1.42
Formation of formazan dyes, absorbance, Means 8 h ([13]; oral lavage and diaphorase, not malate, 8 h): 1.34
Formation of formazan dyes, absorbance, Means 10 h ([13]; oral lavage and diaphorase, not malate, 10 h): 1.31
Formation of formazan dyes, absorbance, Means 12 h ([13]; oral lavage and diaphorase, not malate, 12 h): 1.42
reduction to formazan dyes by pooled oral lavage ([13]; pooled oral lavage of high bleeder group, diaphorase, no added malate (TABLE 11)): partially reduced to formazan dyes
reduction by malate dehydrogenase alone [14]: did not catalyze the reduction
Absorbance, formation of formazan dyes (Means) ([14]; monosodium salt): 0.51 and 0.71 and 0.59 and 0.90
Absorbance, formation of formazan dyes (Means) [15]: 0.53 and 0.74 and 0.65 and 0.88
Absorbance, formation of formazan dyes (Means) ([16]; 0 h): 0.41
Absorbance, formation of formazan dyes (Means) ([16]; 1 h): 0.60
Absorbance, formation of formazan dyes (Means) ([16]; 2 h): 0.66
Absorbance, formation of formazan dyes (Means) ([16]; 3 h): 0.69
Absorbance, formation of formazan dyes (Means) ([16]; 4 h): 0.70
Absorbance, formation of formazan dyes (Means) ([16]; 6 h): 0.71
Absorbance, formation of formazan dyes (Means) ([16]; 8 h): 0.73
Absorbance, formation of formazan dyes (Means) ([16]; 10 h): 0.69
Absorbance, formation of formazan dyes (Means) ([16]; 12 h): 0.67
Absorbance, formation of formazan dyes (Means) [17]: 1.20 and 1.68 and 2.01 and 2.32
